Reference: PubChem BioAssay (NCI)
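Step 1: Grow cells in 96-well plates. Step 2: Expose to compound for 48 hours at 5 concentrations. Step 3: Interpolate endpoints linearly; if unreached, use highest concentration. TGI: total growth inhibition.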

How the values were obtained:
Assay in all cases: NCI tumour cell line growth inhibition, 48 h
[1] = system: MDA-MB-435
[2] = system: NCI-H226 lung
[3] = system: NCI-H522 lung
[4] = system: MDA-MB-231 breast
[5] = system: UACC-257 melanoma
[6] = system: TK-10 renal
[7] = system: MOLT-4 leukemia
[8] = system: OVCAR-3 ovarian
[9] = system: SK-OV-3 ovarian
[10] = system: CCRF-CEM leukemia
[11] = system: SK-MEL-28 melanoma
[12] = system: OVCAR-8 ovarian
[13] = system: LOX IMVI melanoma
[14] = system: OVCAR-5 ovarian
[15] = system: OVCAR-4 ovarian
[16] = system: M14 melanoma
[17] = system: NCI-H23 lung
[18] = system: MCF7 breast
[19] = system: RXF 393 renal
[20] = system: 786-0 renal
[21] = system: PC-3 prostate
[22] = system: DU-145 prostate
[23] = system: MDA-N
[24] = system: SF-539 CNS
[25] = system: SF-295 CNS
[26] = system: ACHN renal
[27] = system: HCT-116 colon
[28] = system: HL-60(TB) leukemia
[29] = system: NCI-H460 lung
[30] = system: HOP-92 NSCLC
[31] = system: HOP-62 NSCLC
[32] = system: HS 578T breast
[33] = system: CAKI-1 renal
[34] = system: NCI/ADR-RES ovarian
[35] = system: A498 renal
[36] = system: UO-31 renal
[37] = system: KM12 colon
[38] = system: SW-620 colon
[39] = system: IGROV1 ovarian
[40] = system: U251 CNS
[41] = system: HCC-2998 colon
[42] = system: K-562 leukemia
[43] = system: SR leukemia
[44] = system: HT29 colon
[45] = system: T-47D breast
[46] = system: SK-MEL-2 melanoma
[47] = system: EKVX NSCLC
[48] = system: SK-MEL-5 melanoma
[49] = system: SF-268 CNS
[50] = system: RPMI-8226 leukemia
[51] = system: HCT-15 colon
[52] = system: COLO 205 colon
[53] = system: SNB-75 CNS
[54] = system: MALME-3M melanoma
[55] = system: A549 NSCLC
[56] = system: SN12C renal
[57] = system: UACC-62 melanoma
[58] = system: SNB-19 CNS

## CC1=NN(c2nc(N)nc(/C(C#N)=C\C3COc4ccccc4C3=O)n2)C(C)(C)C1 (centres undefined)
[1]
  TGI: > 100 µM
[2]
  TGI: > 100 µM
[3]
  TGI: > 100 µM
[4]
  TGI: > 100 µM
[5]
  TGI: > 100 µM
[6]
  TGI: > 100 µM
[7]
  TGI: 64 µM
[8]
  TGI: > 100 µM
[9]
  TGI: 84.7 µM
[10]
  TGI: > 100 µM
[11]
  TGI: > 100 µM
[12]
  TGI: > 100 µM
[13]
  TGI: > 100 µM
[14]
  TGI: > 100 µM
[15]
  TGI: > 100 µM
[16]
  TGI: > 100 µM
[17]
  TGI: 90.5 µM
[18]
  TGI: > 100 µM
[19]
  TGI: 64.4 µM
[20]
  TGI: > 100 µM
[21]
  TGI: 77.7 µM
[22]
  TGI: > 100 µM
[23]
  TGI: 84.6 µM
[24]
  TGI: > 100 µM
[25]
  TGI: > 100 µM
[26]
  TGI: 93.7 µM
[27]
  TGI: 75 µM
[28]
  TGI: 5.2 µM
[29]
  TGI: > 100 µM
[30]
  TGI: > 100 µM
[31]
  TGI: > 100 µM
[32]
  TGI: 85 µM
[33]
  TGI: > 100 µM
[34]
  TGI: 35.9 µM
[35]
  TGI: 63 µM
[36]
  TGI: 96.8 µM
[37]
  TGI: > 100 µM
[38]
  TGI: > 100 µM
[39]
  TGI: > 100 µM
[40]
  TGI: > 100 µM
[41]
  TGI: > 100 µM
[42]
  TGI: > 100 µM
[43]
  TGI: 46.1 µM
[44]
  TGI: 69 µM
[45]
  TGI: 69.1 µM
[46]
  TGI: 42.3 µM
[47]
  TGI: > 100 µM
[48]
  TGI: > 100 µM
[49]
  TGI: > 100 µM
[50]
  TGI: 54.8 µM
[51]
  TGI: > 100 µM

## Cc1cc(C)c(OC(=O)Nc2cccc3ccccc23)c(-c2ccccc2)c1
[1]
  TGI: 82.2 µM
[2]
  TGI: 58.4 µM
[52]
  TGI: > 100 µM
[4]
  TGI: > 100 µM
[6]
  TGI: > 100 µM
[7]
  TGI: 37.3 µM
[8]
  TGI: > 100 µM
[9]
  TGI: > 100 µM
[10]
  TGI: > 100 µM
[11]
  TGI: > 100 µM
[12]
  TGI: > 100 µM
[13]
  TGI: > 100 µM
[14]
  TGI: > 100 µM
[53]
  TGI: 47.4 µM
[15]
  TGI: > 100 µM
[16]
  TGI: > 100 µM
[17]
  TGI: > 100 µM
[54]
  TGI: > 100 µM
[18]
  TGI: > 100 µM
[20]
  TGI: > 100 µM
[21]
  TGI: > 100 µM
[22]
  TGI: > 100 µM
[23]
  TGI: > 100 µM
[24]
  TGI: > 100 µM
[55]
  TGI: > 100 µM
[25]
  TGI: > 100 µM
[26]
  TGI: 94.9 µM
[27]
  TGI: > 100 µM
[56]
  TGI: > 100 µM
[28]
  TGI: > 100 µM
[29]
  TGI: > 100 µM
[30]
  TGI: 78.6 µM
[31]
  TGI: > 100 µM
[32]
  TGI: > 100 µM
[33]
  TGI: 93 µM
[57]
  TGI: > 100 µM
[34]
  TGI: > 100 µM
[36]
  TGI: 26.8 µM
[37]
  TGI: > 100 µM
[38]
  TGI: > 100 µM
[39]
  TGI: > 100 µM
[40]
  TGI: > 100 µM
[41]
  TGI: 91.8 µM
[42]
  TGI: > 100 µM
[43]
  TGI: > 100 µM
[44]
  TGI: > 100 µM
[45]
  TGI: > 100 µM
[47]
  TGI: > 100 µM
[48]
  TGI: 34.6 µM
[49]
  TGI: 80.1 µM
[50]
  TGI: > 100 µM
[51]
  TGI: > 100 µM

## COc1ccc(C2C=C(c3ccccc3)Nc3nnnn32)cc1 (centres undefined)
[1]
  TGI: > 100 µM
[2]
  TGI: > 100 µM
[3]
  TGI: 57.7 µM
[52]
  TGI: > 100 µM
[4]
  TGI: 90.5 µM
[5]
  TGI: > 100 µM
[6]
  TGI: 29.8 µM
[7]
  TGI: > 100 µM
[8]
  TGI: 77.8 µM
[9]
  TGI: 93 µM
[10]
  TGI: > 100 µM
[12]
  TGI: > 100 µM
[13]
  TGI: > 100 µM
[14]
  TGI: > 100 µM
[16]
  TGI: > 100 µM
[17]
  TGI: > 100 µM
[18]
  TGI: 84.4 µM
[19]
  TGI: 50.9 µM
[20]
  TGI: 91.1 µM
[21]
  TGI: > 100 µM
[22]
  TGI: > 100 µM
[23]
  TGI: > 100 µM
[24]
  TGI: 53.1 µM
[55]
  TGI: > 100 µM
[25]
  TGI: 88.3 µM
[26]
  TGI: 60.3 µM
[27]
  TGI: 29.3 µM
[56]
  TGI: > 100 µM
[28]
  TGI: > 100 µM
[29]
  TGI: > 100 µM
[31]
  TGI: 66.8 µM
[32]
  TGI: > 100 µM
[33]
  TGI: > 100 µM
[57]
  TGI: > 100 µM
[34]
  TGI: > 100 µM
[35]
  TGI: > 100 µM
[36]
  TGI: > 100 µM
[37]
  TGI: 34.8 µM
[38]
  TGI: > 100 µM
[39]
  TGI: > 100 µM
[40]
  TGI: 56.1 µM
[42]
  TGI: > 100 µM
[43]
  TGI: > 100 µM
[44]
  TGI: 34.2 µM
[45]
  TGI: 60.4 µM
[46]
  TGI: > 100 µM
[58]
  TGI: > 100 µM
[48]
  TGI: > 100 µM
[49]
  TGI: > 100 µM
[50]
  TGI: 80.2 µM
[51]
  TGI: > 100 µM
